From US5994363A (priority 1998, dated 1999)
Values joined by “and” are separate entries in the source; they are usually repeats but may differ in a detail not shown here. Equal values may be shown once. Where a name gives a salt, the structure may show the parent alone.

Assays:
[1] = Penile erectile response ([…] score) with erotic and neutral videos (Example 5); type: in vivo, human; conditions: for Total RIGISCAN Score, Erotic 1: N = 31-36, ** significantly higher than placebo 1 and 2
Procedure: Each of the selected subjects' penile erectile response (measured with the […]™ ambulatory tumescence monitor) was evaluated using the scoring system as set out in Table IX, below.
The combining of the scores of A, B, C, and D from Table IX yields a total score for each subject. A total score of less than 16 for any individual subject indicates erectile dysfunction.
Patients not experiencing nausea or any other significant adverse effects within fifteen minutes post-dosing with APO or placebo viewed segments of standardized erotic videos to provide sexual stimulation. […] The duration of the testing session for each dose level lasted between 45 and 60 minutes.
This aim was accomplished during the first two phases of the study in which subjects were attached to the […]™ monitor. Subjects were initially treated with placebo, followed by APO 4, 6, and 8 mg. tablets with a placebo tablet randomly interspersed in the treatment.

[2] = single bolus subcutaneous injection, mammals; cited from earlier work

CN1CCc2cccc3c2[C@H]1Cc1ccc(O)c(O)c1-3 [apomorphine HCl]
RIGISCAN score, erotic #1, comparison in words ([1]; 4 mg, Site #1): slightly lower
Penile Measurements (Maximum Increases), LSMEAN, NEUTRAL ([1]; 4 mg, b698 all sites, b704 site #1, b710 #2, b716 #3, b722 #4, listed as APO): 8.70
Total RIGISCAN Score, Erotic 1 ([1]; 6 mg): 17.09 ± 1.64
Penile Measurements (Maximum Increases), MEAN, NEUTRAL ([1]; 6 mg, b699 all sites, b705 site #1, b711 #2, b717 #3, b723 #4, listed as APO): 9.60
Total RIGISCAN Score, Erotic 1 ([1]; 8 mg): 19.84 ± 1.61
Total RIGISCAN Score, Neutral ([1]; 8 mg, N = 41-48, **): 11.95 ± 1.37
Penile Measurements (Maximum increase), Mean, EROTIC #1 ([1]; 8 mg, all sites, site #1, #2, #4, listed as APO): 19.84 and 15.60 and 25.00
RIGISCAN scores, treatment effect vs second placebo in words ([1]; 4, 6, and 8 mg): most of the treatment effects were significant to highly significant compared to the second placebo
RIGISCAN scores, treatment effect in words ([1]; 4, 6, and 8 mg vs initial placebo): significant to highly significant
RIGISCAN scores for penile increases in words ([1]; active doses, each of four sites, neutral and erotic sequences): improved significantly
RIGISCAN reading, effective in causing erections ([1]; all doses, erotic stimulation): greater than or equal to 15
tolerated dose [2]: up to 13 mg/kg
